Tests used:
[1] = target: T1, Cytochrome P450 3A4 (Homo sapiens, UniProt P08684); assay: Inhibition of CYP3A4 in human liver microsomes using midazolam as substrate incubated for 15 to 45 mins in presence of NADPH; assay type: ADME, Microsome
[2] = target: Cytochrome P450 2D6 (Homo sapiens, UniProt P10635); assay: Inhibition of CYP2D6 in human liver microsomes using dextromethorphan as substrate incubated for 15 to 45 mins in presence of NADPH; assay type: ADME, Microsome
[3] = Acute toxicity in 12 hr fasted male CD-1(ICR) mouse assessed as behavioral abnormalities at 2 g/Kg, IG measured after 14 days; conditions: in vivo, po, 2000 mg/kg, 336 h, time 14 day
[4] = Half life in Sprague-Dawley rat at 1 mg/kg, iv measured upto 24 hrs by LC-MS/MS analysis; assay type: ADME, organism-based; conditions: in vivo
[5] = Acute toxicity in 12 hr fasted male CD-1(ICR) mouse assessed as pathological damage in liver at 2 g/Kg, IG measured after 14 days by H and E staining based analysis; assay type: tissue-based; conditions: in vivo, po, 2000 mg/kg, 336 h, time 14 day
[6] = Acute toxicity in 12 hr fasted male CD-1(ICR) mouse assessed as changes in body weight at 2 g/Kg, IG measured after 14 days; conditions: in vivo, po, 2000 mg/kg, 336 h, time 14 day
[7] = MRT (0 to t) in Sprague-Dawley rat at 10 mg/kg, po measured upto 24 hrs by LC-MS/MS analysis; assay type: ADME, organism-based; conditions: in vivo
[8] = Acute toxicity in 12 hr fasted male CD-1(ICR) mouse assessed as pathological damage in kidney at 2 g/Kg, IG measured after 14 days by H and E staining based analysis; assay type: tissue-based; conditions: in vivo, po, 2000 mg/kg, 336 h, time 14 day
[9] = target: T1, Cytochrome P450 3A4; assay: Inhibition of CYP3A4 in human liver microsomes using testosterone as substrate incubated for 15 to 45 mins in presence of NADPH; assay type: ADME, Microsome
[10] = tested on: Human immunodeficiency virus 1; assay: Antiviral activity against wild type HIV-1 IIIB infected in human MT4 cells assessed as protection against virus-induced cytopathic effect incubated for 5 days by MTT assay; assay type: functional, organism-based; conditions: Human immunodeficiency virus 1, IIIB, MT4, 120 h
[11] = Acute toxicity in 12 hr fasted female CD-1(ICR) mouse assessed as pathological damage in heart at 2 g/Kg, IG measured after 14 days by H and E staining based analysis; assay type: tissue-based; conditions: in vivo, po, 2000 mg/kg, 336 h, time 14 day
[12] = Resistant factor, ratio of EC50 for antiviral activity against HIV-1 IIIB harboring reverse transcriptase Y181C mutant to EC50 for antiviral activity against wild type HIV-1 IIIB; assay type: functional
[13] = Acute toxicity in 12 hr fasted male CD-1(ICR) mouse assessed as pathological damage in lung at 2 g/Kg, IG measured after 14 days by H and E staining based analysis; assay type: tissue-based; conditions: in vivo, po, 2000 mg/kg, 336 h, time 14 day
[14] = tested on: Human immunodeficiency virus 1; assay: Antiviral activity against wild type HIV-1 IIIB harboring reverse transcriptase Y188L mutant infected in human MT4 cells assessed as protection against virus-induced cytopathic effect incubated for 5 days by MTT assay; assay type: functional, organism-based; conditions: Human immunodeficiency virus 1, IIIB, MT4, 120 h
[15] = Acute toxicity in 12 hr fasted female CD-1 (ICR) mouse assessed as death at 2 g/Kg, IG measured after 14 days; conditions: in vivo, po, 2000 mg/kg, 336 h, time 14 day
[16] = Acute toxicity in 12 hr fasted female CD-1(ICR) mouse assessed as pathological damage in liver at 2 g/Kg, IG measured after 14 days by H and E staining based analysis; assay type: tissue-based; conditions: in vivo, po, 2000 mg/kg, 336 h, time 14 day
[17] = AUC (0 to infinity) in Sprague-Dawley rat at 1 mg/kg, iv measured upto 24 hrs by LC-MS/MS analysis; assay type: ADME, organism-based; set-up: time < 24 hrs, dose 1 mg/kg, route iv; conditions: in vivo
[18] = tested on: Human immunodeficiency virus 1; assay: Antiviral activity against wild type HIV-1 IIIB harboring reverse transcriptase E138K mutant infected in human MT4 cells assessed as protection against virus-induced cytopathic effect incubated for 5 days by MTT assay; assay type: functional, organism-based; conditions: Human immunodeficiency virus 1, IIIB, MT4, 120 h
[19] = Half life in Sprague-Dawley rat at 10 mg/kg, po measured upto 24 hrs by LC-MS/MS analysis; assay type: ADME, organism-based; conditions: in vivo
[20] = AUC (0 to t) in Sprague-Dawley rat at 1 mg/kg, iv measured upto 24 hrs by LC-MS/MS analysis; assay type: ADME, organism-based; set-up: time < 24 hrs, dose 1 mg/kg, route iv; conditions: in vivo
[21] = Acute toxicity in 12 hr fasted female CD-1(ICR) mouse assessed as pathological damage in lung at 2 g/Kg, IG measured after 14 days by H and E staining based analysis; assay type: tissue-based; conditions: in vivo, po, 2000 mg/kg, 336 h, time 14 day
[22] = target: Cytochrome P450 2C19 (Homo sapiens, UniProt P33261); assay: Inhibition of CYP2C19 in human liver microsomes using S-mephenytoin as substrate incubated for 15 to 45 mins in presence of NADPH; assay type: ADME, Microsome
[23] = AUC (0 to t) in Sprague-Dawley rat at 10 mg/kg, po measured upto 24 hrs by LC-MS/MS analysis; assay type: ADME, organism-based; set-up: dose 10 mg/kg, time < 24 hrs, route po; conditions: in vivo
[24] = target: Cytochrome P450 2C9 (Homo sapiens, UniProt P11712); assay: Inhibition of CYP2C9 in human liver microsomes using tolbutamide as substrate incubated for 15 to 45 mins in presence of NADPH
[25] = Resistant factor, ratio of EC50 for antiviral activity against HIV-1 IIIB harboring reverse transcriptase […] mutant to EC50 for antiviral activity against wild type HIV-1 IIIB; assay type: functional
[26] = Selectivity index, ratio of CC50 for cytotoxicity against human MT4 cells to EC50 for antiviral activity against wild type HIV-1 IIIB infected in human MT4 cells; assay type: toxicity, cell-based; conditions: read-out: Ratio CC50/EC50
[27] = target: T2, Cytochrome P450 1A2 (Homo sapiens, UniProt P05177); assay: Inhibition of CYP1A2 in human liver microsomes using phenacetin as substrate incubated for 15 to 45 mins in presence of NADPH; assay type: ADME, Microsome
T2 sequence (P05177 whole entry): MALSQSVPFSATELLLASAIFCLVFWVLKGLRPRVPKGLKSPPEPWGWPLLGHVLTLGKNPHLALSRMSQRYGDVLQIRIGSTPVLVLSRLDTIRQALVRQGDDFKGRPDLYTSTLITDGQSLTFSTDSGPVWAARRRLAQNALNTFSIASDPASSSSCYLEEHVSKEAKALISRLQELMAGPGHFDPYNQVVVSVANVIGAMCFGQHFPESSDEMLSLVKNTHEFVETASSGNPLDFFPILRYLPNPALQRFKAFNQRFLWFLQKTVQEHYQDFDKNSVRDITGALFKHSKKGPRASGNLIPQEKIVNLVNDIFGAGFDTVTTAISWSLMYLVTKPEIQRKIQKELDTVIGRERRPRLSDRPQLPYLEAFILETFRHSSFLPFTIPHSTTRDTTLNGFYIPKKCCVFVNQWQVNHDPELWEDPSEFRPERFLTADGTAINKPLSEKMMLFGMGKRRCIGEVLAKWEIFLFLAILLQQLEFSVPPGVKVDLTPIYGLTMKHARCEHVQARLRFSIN

[28] = MRT (0 to infinity) in Sprague-Dawley rat at 1 mg/kg, iv measured upto 24 hrs by LC-MS/MS analysis; assay type: ADME, organism-based; conditions: in vivo
[29] = tested on: Human immunodeficiency virus 1; assay: Antiviral activity against wild type HIV-1 IIIB harboring reverse transcriptase Y181C mutant infected in human MT4 cells assessed as protection against virus-induced cytopathic effect incubated for 5 days by MTT assay; assay type: functional, organism-based; conditions: Human immunodeficiency virus 1, IIIB, MT4, 120 h
[30] = Resistant factor, ratio of EC50 for antiviral activity against HIV-1 IIIB harboring reverse transcriptase Y188L mutant to EC50 for antiviral activity against wild type HIV-1 IIIB; assay type: functional
[31] = AUC (0 to infinity) in Sprague-Dawley rat at 10 mg/kg, po measured upto 24 hrs by LC-MS/MS analysis; assay type: ADME, organism-based; set-up: dose 10 mg/kg, time < 24 hrs, route po; conditions: in vivo

T1 sequence (P08684 whole entry): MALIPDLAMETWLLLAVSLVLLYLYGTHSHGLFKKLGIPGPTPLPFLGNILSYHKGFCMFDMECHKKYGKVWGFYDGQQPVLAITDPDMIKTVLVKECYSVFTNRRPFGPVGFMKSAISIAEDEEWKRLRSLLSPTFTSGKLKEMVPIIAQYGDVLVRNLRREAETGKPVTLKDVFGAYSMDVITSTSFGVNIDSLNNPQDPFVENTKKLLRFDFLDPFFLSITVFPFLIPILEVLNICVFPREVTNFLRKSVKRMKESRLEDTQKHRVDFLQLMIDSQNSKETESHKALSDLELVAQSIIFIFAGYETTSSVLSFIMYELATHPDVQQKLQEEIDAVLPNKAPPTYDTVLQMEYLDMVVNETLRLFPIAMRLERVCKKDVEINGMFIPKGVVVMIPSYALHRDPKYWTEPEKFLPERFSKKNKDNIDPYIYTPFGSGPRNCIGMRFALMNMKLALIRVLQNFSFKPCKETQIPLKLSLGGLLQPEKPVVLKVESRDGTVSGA
Cytochrome P450 2C9, sequence (P11712 whole entry): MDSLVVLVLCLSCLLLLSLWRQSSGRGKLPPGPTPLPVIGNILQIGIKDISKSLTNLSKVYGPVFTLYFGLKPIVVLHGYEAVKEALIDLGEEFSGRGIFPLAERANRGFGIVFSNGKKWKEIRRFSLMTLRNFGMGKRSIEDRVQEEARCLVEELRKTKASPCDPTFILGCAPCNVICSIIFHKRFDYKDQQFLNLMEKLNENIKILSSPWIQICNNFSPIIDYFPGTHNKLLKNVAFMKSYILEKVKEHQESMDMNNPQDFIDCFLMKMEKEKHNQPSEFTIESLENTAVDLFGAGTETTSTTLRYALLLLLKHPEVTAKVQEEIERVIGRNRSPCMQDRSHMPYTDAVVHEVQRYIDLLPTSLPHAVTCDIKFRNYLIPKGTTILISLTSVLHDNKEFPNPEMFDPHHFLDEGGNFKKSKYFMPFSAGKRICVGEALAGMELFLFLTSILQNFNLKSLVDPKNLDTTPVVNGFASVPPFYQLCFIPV
Cytochrome P450 2C19, sequence (P33261 whole entry): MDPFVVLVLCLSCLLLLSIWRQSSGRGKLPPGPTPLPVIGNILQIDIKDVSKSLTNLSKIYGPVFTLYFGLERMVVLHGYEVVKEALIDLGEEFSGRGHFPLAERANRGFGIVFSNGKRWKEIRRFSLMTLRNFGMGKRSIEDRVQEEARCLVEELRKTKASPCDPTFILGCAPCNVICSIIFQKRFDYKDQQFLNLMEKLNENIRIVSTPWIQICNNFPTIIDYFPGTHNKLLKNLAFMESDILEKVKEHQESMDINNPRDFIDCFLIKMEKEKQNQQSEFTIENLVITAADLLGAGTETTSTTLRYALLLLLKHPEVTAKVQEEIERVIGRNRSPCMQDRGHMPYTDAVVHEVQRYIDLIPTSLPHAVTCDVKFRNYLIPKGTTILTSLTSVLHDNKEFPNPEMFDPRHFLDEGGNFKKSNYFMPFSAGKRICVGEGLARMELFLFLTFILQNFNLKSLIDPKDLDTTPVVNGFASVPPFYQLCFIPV
Cytochrome P450 2D6, sequence (P10635 whole entry): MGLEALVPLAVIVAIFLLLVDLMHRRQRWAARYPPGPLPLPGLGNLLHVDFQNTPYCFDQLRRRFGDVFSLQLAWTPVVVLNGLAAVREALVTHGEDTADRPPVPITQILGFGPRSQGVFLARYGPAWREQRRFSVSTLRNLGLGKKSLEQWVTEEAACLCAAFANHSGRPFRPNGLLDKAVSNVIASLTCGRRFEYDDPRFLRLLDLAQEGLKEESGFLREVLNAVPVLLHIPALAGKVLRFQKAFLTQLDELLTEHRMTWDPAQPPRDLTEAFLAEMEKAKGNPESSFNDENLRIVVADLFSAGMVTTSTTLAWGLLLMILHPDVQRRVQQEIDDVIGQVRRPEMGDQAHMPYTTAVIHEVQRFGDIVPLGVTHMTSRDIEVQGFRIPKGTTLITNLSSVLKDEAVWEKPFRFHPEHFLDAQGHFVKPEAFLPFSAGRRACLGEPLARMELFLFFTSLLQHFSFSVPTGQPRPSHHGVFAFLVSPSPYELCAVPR

CONC(=O)c1cnc(Nc2ccc(C#N)cc2)nc1Oc1c(C)cc(-c2ccc(C#N)cc2)cc1C
IC50 [1]: > 50 µM | IC50 [2]: > 50 µM | Activity [3]: Non-Toxic | half-life [4]: 3.66 h | Activity [5]: Non-Toxic | Activity [6]: Non-Toxic | MRT last at 24 h [7]: 4.54 h | Activity [8]: Non-Toxic | IC50 [9]: > 50 µM | EC50 [10]: 0.002 µM | Activity [11]: Non-Toxic | Ratio EC50 [12]: 13 | Activity [13]: Non-Toxic | EC50 [14]: 0.052 µM | Activity [15]: Non-Toxic | Activity [16]: Non-Toxic | AUC(0-inf) [17]: 1170 ng·h/mL | EC50 [18]: 0.006 µM | half-life [19]: 5.18 h | AUC(0-t) at 24 h [20]: 1160 ng·h/mL | Activity [21]: Non-Toxic | IC50 [22]: 23.6 µM | AUC(0-t) at 24 h [23]: 3570 ng·h/mL | IC50 [24]: 18.5 µM | Ratio EC50 [25]: 5.7 | selectivity ratio [26]: > 17400 | IC50 [27]: > 50 µM | MRT inf [28]: 3.75 h | EC50 [29]: 0.029 µM | Ratio EC50 [30]: 23 | AUC(0-inf) [31]: 3650 ng·h/mL
